Measured values reported in PubChem BioAssay (NCI).
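Each compound was tested at five concentrations against cells in 96-well plates for 48 hours. TGI denotes the concentration required for complete inhibition of growth.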

The compounds below were run on 786-0 renal (assay: NCI tumour cell line growth inhibition, 48 h).

Compound | TGI [µM]
O=c1c2cc(S(=O)(=O)O)ccc2nc(COc2ccc(Oc3ccc(Cl)cc3Cl)cc2)n1-c1ccc(Cl)cc1Oc1c(Cl)cccc1Cl | 64.6
C=C1CCC23CC(CC[C@@H]2[C@@]12C[C@@H](c1ccoc1)OC2=O)OC3=O (some centres undefined) | > 100
O=C1O/C(=C(/Cl)c2cccc3ccccc23)c2ccccc21 | > 100
COc1cc(OC)c2c(=O)c(OC)c(-c3ccc4c(c3)OCO4)oc2c1 | 79.3
CC1(C)CC(=O)C(/C=N/c2nc(-c3ccccc3)cs2)=C(O)C1 | > 100
COc1ccc(C2C3=C(Nc4ncnn42)c2ccccc2OC3c2ccccc2)cc1 (centres undefined) | > 100
N#Cc1nc(C2=C(Cl)c3ccccc3OC2)[nH]c1C#N | > 100
O=C1C=CC=C/C1=C1\N=C(c2ccccc2OCC(=O)c2ccc(Br)cc2)SS1 | > 100
COc1ccc(-c2cc(=O)c3ccccc3[nH]2)c(OC)c1 | > 100
O=c1[nH]nc(Cc2ccccc2)[nH]1 | > 100
N#Cc1c(-c2ccccc2)cc(Nc2cccc(C(F)(F)F)c2)n2c1nc1ccccc12 | 6.57
CC(C)Oc1ccc2c(c1)OCC1Cc3ccccc3OC21 (centres undefined) | > 100
c1csc(-c2cc(-c3cccs3)c(-c3ccsc3)s2)c1 | > 100
Cc1ccc(S(=O)(=O)OC(c2ccc(Cl)cc2Cl)C2OC(=O)c3ccccc32)cc1 (centres undefined) | > 100
CC(=O)N[C@@H](Cc1ccc(O)cn1)C(=O)NCc1cccc(Cl)c1 | > 100
Cc1nn(C(=O)Cc2ccccc2)c2c1C(c1ccc(N(C)C)cc1)SC(N)=N2 (centres undefined) | > 100
CCn1c(SCC(=O)NNC(=S)Nc2ccc(C)cc2)nc2ccccc2c1=O | > 100
COC(=O)C(NC(=O)c1ccccc1)c1ccco1 (centres undefined) | > 100
NC(=S)Nc1ccc(S(=O)(=O)Nc2ccc(S(N)(=O)=O)cc2)cc1 | > 100
NNc1nncc2n[nH]nc12 | > 100
CCOC(=O)C(Cc1cn(S(=O)(=O)c2ccccc2)c2ccccc12)(NC(C)=O)C(=O)OCC | > 100

Each compound was assayed on A549 NSCLC (assay: NCI tumour cell line growth inhibition, 48 h).

Compound | TGI [µM]
O=c1c2cc(S(=O)(=O)O)ccc2nc(COc2ccc(Oc3ccc(Cl)cc3Cl)cc2)n1-c1ccc(Cl)cc1Oc1c(Cl)cccc1Cl | 72.1
C=C1CCC23CC(CC[C@@H]2[C@@]12C[C@@H](c1ccoc1)OC2=O)OC3=O (some centres undefined) | > 100
O=C1O/C(=C(/Cl)c2cccc3ccccc23)c2ccccc21 | > 100
COc1cc(OC)c2c(=O)c(OC)c(-c3ccc4c(c3)OCO4)oc2c1 | > 100
CC1(C)CC(=O)C(/C=N/c2nc(-c3ccccc3)cs2)=C(O)C1 | > 100
COc1ccc(C2C3=C(Nc4ncnn42)c2ccccc2OC3c2ccccc2)cc1 (centres undefined) | > 100
N#Cc1nc(C2=C(Cl)c3ccccc3OC2)[nH]c1C#N | > 100
O=C1C=CC=C/C1=C1\N=C(c2ccccc2OCC(=O)c2ccc(Br)cc2)SS1 | > 100
COc1ccc(-c2cc(=O)c3ccccc3[nH]2)c(OC)c1 | > 100
O=c1[nH]nc(Cc2ccccc2)[nH]1 | > 100
CC(C)Oc1ccc2c(c1)OCC1Cc3ccccc3OC21 (centres undefined) | > 100
c1csc(-c2cc(-c3cccs3)c(-c3ccsc3)s2)c1 | > 100
Cc1ccc(S(=O)(=O)OC(c2ccc(Cl)cc2Cl)C2OC(=O)c3ccccc32)cc1 (centres undefined) | > 100
CC(=O)N[C@@H](Cc1ccc(O)cn1)C(=O)NCc1cccc(Cl)c1 | > 100
Cc1nn(C(=O)Cc2ccccc2)c2c1C(c1ccc(N(C)C)cc1)SC(N)=N2 (centres undefined) | > 100
CCn1c(SCC(=O)NNC(=S)Nc2ccc(C)cc2)nc2ccccc2c1=O | > 100
COC(=O)C(NC(=O)c1ccccc1)c1ccco1 (centres undefined) | > 100
NC(=S)Nc1ccc(S(=O)(=O)Nc2ccc(S(N)(=O)=O)cc2)cc1 | > 100
NNc1nncc2n[nH]nc12 | > 100
CCOC(=O)C(Cc1cn(S(=O)(=O)c2ccccc2)c2ccccc12)(NC(C)=O)C(=O)OCC | > 100

What follows are compounds tested on ACHN renal (assay: NCI tumour cell line growth inhibition, 48 h).

Compound | TGI [µM]
O=c1c2cc(S(=O)(=O)O)ccc2nc(COc2ccc(Oc3ccc(Cl)cc3Cl)cc2)n1-c1ccc(Cl)cc1Oc1c(Cl)cccc1Cl | 68.5
C=C1CCC23CC(CC[C@@H]2[C@@]12C[C@@H](c1ccoc1)OC2=O)OC3=O (some centres undefined) | > 100
COc1cc(OC)c2c(=O)c(OC)c(-c3ccc4c(c3)OCO4)oc2c1 | > 100
CC1(C)CC(=O)C(/C=N/c2nc(-c3ccccc3)cs2)=C(O)C1 | > 100
COc1ccc(C2C3=C(Nc4ncnn42)c2ccccc2OC3c2ccccc2)cc1 (centres undefined) | > 100
N#Cc1nc(C2=C(Cl)c3ccccc3OC2)[nH]c1C#N | > 100
O=C1C=CC=C/C1=C1\N=C(c2ccccc2OCC(=O)c2ccc(Br)cc2)SS1 | > 100
COc1ccc(-c2cc(=O)c3ccccc3[nH]2)c(OC)c1 | > 100
O=c1[nH]nc(Cc2ccccc2)[nH]1 | > 100
N#Cc1c(-c2ccccc2)cc(Nc2cccc(C(F)(F)F)c2)n2c1nc1ccccc12 | 11.1
c1csc(-c2cc(-c3cccs3)c(-c3ccsc3)s2)c1 | > 100
Cc1ccc(S(=O)(=O)OC(c2ccc(Cl)cc2Cl)C2OC(=O)c3ccccc32)cc1 (centres undefined) | > 100
CC(=O)N[C@@H](Cc1ccc(O)cn1)C(=O)NCc1cccc(Cl)c1 | > 100
Cc1nn(C(=O)Cc2ccccc2)c2c1C(c1ccc(N(C)C)cc1)SC(N)=N2 (centres undefined) | > 100
CCn1c(SCC(=O)NNC(=S)Nc2ccc(C)cc2)nc2ccccc2c1=O | > 100
COC(=O)C(NC(=O)c1ccccc1)c1ccco1 (centres undefined) | > 100
NC(=S)Nc1ccc(S(=O)(=O)Nc2ccc(S(N)(=O)=O)cc2)cc1 | > 100
NNc1nncc2n[nH]nc12 | > 100
CCOC(=O)C(Cc1cn(S(=O)(=O)c2ccccc2)c2ccccc12)(NC(C)=O)C(=O)OCC | > 100

Each compound was assayed on CAKI-1 renal (assay: NCI tumour cell line growth inhibition, 48 h).

Compound | TGI [µM]
O=c1c2cc(S(=O)(=O)O)ccc2nc(COc2ccc(Oc3ccc(Cl)cc3Cl)cc2)n1-c1ccc(Cl)cc1Oc1c(Cl)cccc1Cl | > 100
C=C1CCC23CC(CC[C@@H]2[C@@]12C[C@@H](c1ccoc1)OC2=O)OC3=O (some centres undefined) | > 100
O=C1O/C(=C(/Cl)c2cccc3ccccc23)c2ccccc21 | > 100
COc1cc(OC)c2c(=O)c(OC)c(-c3ccc4c(c3)OCO4)oc2c1 | 60.5
COc1ccc(C2C3=C(Nc4ncnn42)c2ccccc2OC3c2ccccc2)cc1 (centres undefined) | > 100
N#Cc1nc(C2=C(Cl)c3ccccc3OC2)[nH]c1C#N | > 100
O=C1C=CC=C/C1=C1\N=C(c2ccccc2OCC(=O)c2ccc(Br)cc2)SS1 | > 100
O=c1[nH]nc(Cc2ccccc2)[nH]1 | > 100
N#Cc1c(-c2ccccc2)cc(Nc2cccc(C(F)(F)F)c2)n2c1nc1ccccc12 | 13.1
CC(C)Oc1ccc2c(c1)OCC1Cc3ccccc3OC21 (centres undefined) | > 100
c1csc(-c2cc(-c3cccs3)c(-c3ccsc3)s2)c1 | > 100
CC(=O)N[C@@H](Cc1ccc(O)cn1)C(=O)NCc1cccc(Cl)c1 | > 100
Cc1nn(C(=O)Cc2ccccc2)c2c1C(c1ccc(N(C)C)cc1)SC(N)=N2 (centres undefined) | > 100
NC(=S)Nc1ccc(S(=O)(=O)Nc2ccc(S(N)(=O)=O)cc2)cc1 | > 100
NNc1nncc2n[nH]nc12 | > 100
CCOC(=O)C(Cc1cn(S(=O)(=O)c2ccccc2)c2ccccc12)(NC(C)=O)C(=O)OCC | > 100

Each compound was assayed on HCT-116 colon (assay: NCI tumour cell line growth inhibition, 48 h).

Compound | TGI [µM]
O=c1c2cc(S(=O)(=O)O)ccc2nc(COc2ccc(Oc3ccc(Cl)cc3Cl)cc2)n1-c1ccc(Cl)cc1Oc1c(Cl)cccc1Cl | 67.8
C=C1CCC23CC(CC[C@@H]2[C@@]12C[C@@H](c1ccoc1)OC2=O)OC3=O (some centres undefined) | > 100
O=C1O/C(=C(/Cl)c2cccc3ccccc23)c2ccccc21 | > 100
COc1cc(OC)c2c(=O)c(OC)c(-c3ccc4c(c3)OCO4)oc2c1 | > 100
CC1(C)CC(=O)C(/C=N/c2nc(-c3ccccc3)cs2)=C(O)C1 | > 100
COc1ccc(C2C3=C(Nc4ncnn42)c2ccccc2OC3c2ccccc2)cc1 (centres undefined) | > 100
O=C1C=CC=C/C1=C1\N=C(c2ccccc2OCC(=O)c2ccc(Br)cc2)SS1 | > 100
COc1ccc(-c2cc(=O)c3ccccc3[nH]2)c(OC)c1 | > 100
O=c1[nH]nc(Cc2ccccc2)[nH]1 | > 100
N#Cc1c(-c2ccccc2)cc(Nc2cccc(C(F)(F)F)c2)n2c1nc1ccccc12 | 3.52
CC(C)Oc1ccc2c(c1)OCC1Cc3ccccc3OC21 (centres undefined) | > 100
c1csc(-c2cc(-c3cccs3)c(-c3ccsc3)s2)c1 | > 100
Cc1ccc(S(=O)(=O)OC(c2ccc(Cl)cc2Cl)C2OC(=O)c3ccccc32)cc1 (centres undefined) | > 100
